Data published in PubChem BioAssay (NCI).
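Grown in 96-well plates, cells were treated for 48 hours with each compound at five concentrations. Insufficient inhibition: endpoint recorded as highest concentration tested. The concentration for full growth arrest is given as TGI.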

Key:
Assay in all cases: NCI anticancer screen, dose series, 48 h
A498 renal = test system: A498 renal
UACC-62 melanoma = test system: UACC-62 melanoma
ACHN renal = test system: ACHN renal
NCI-H226 lung = test system: NCI-H226 lung
UO-31 renal = test system: UO-31 renal
SF-539 CNS = test system: SF-539 CNS
786-0 renal = test system: 786-0 renal
NCI-H522 lung = test system: NCI-H522 lung
EKVX NSCLC = test system: EKVX NSCLC
MCF7 breast = test system: MCF7 breast
IGROV1 ovarian = test system: IGROV1 ovarian
K-562 leukemia = test system: K-562 leukemia
RPMI-8226 leukemia = test system: RPMI-8226 leukemia
NCI-H23 lung = test system: NCI-H23 lung
SF-295 CNS = test system: SF-295 CNS
KM12 colon = test system: KM12 colon
NCI-H460 lung = test system: NCI-H460 lung
OVCAR-8 ovarian = test system: OVCAR-8 ovarian
HCT-116 colon = test system: HCT-116 colon
SR leukemia = test system: SR leukemia

SMILES	TGI (A498 renal) [µM]	TGI (UACC-62 melanoma) [µM]	TGI (ACHN renal) [µM]	TGI (NCI-H226 lung) [µM]	TGI (UO-31 renal) [µM]	TGI (SF-539 CNS) [µM]	TGI (786-0 renal) [µM]	TGI (NCI-H522 lung) [µM]	TGI (EKVX NSCLC) [µM]	TGI (MCF7 breast) [µM]	TGI (IGROV1 ovarian) [µM]	TGI (K-562 leukemia) [µM]	TGI (RPMI-8226 leukemia) [µM]	TGI (NCI-H23 lung) [µM]	TGI (SF-295 CNS) [µM]	TGI (KM12 colon) [µM]	TGI (NCI-H460 lung) [µM]	TGI (OVCAR-8 ovarian) [µM]	TGI (HCT-116 colon) [µM]	TGI (SR leukemia) [µM]
CC(CO)CCNc1ncnc2c1ncn2CCC(=O)OC(C)(C)C (stereo not given)	> 100	> 100	> 100	> 100	> 100	> 100	> 100	> 100	> 100	> 100	> 100	> 100	> 100	> 100	> 100	> 100	> 100	> 100	> 100	> 100
O=c1oc2ccccc2cc1-c1cn2ccccc2n1	6.49	15.8	11.4	26.7	7.02	10.6	13.4	17.3	29.3	30	26.3	> 52.6	47.3	29.6	13.5	37.2	13.4	10.7	30.1	> 35.5
[N-]=[N+]=Nc1cc(=O)[nH]nc1-c1ccccc1	> 100	> 100	> 100	> 100	> 100	> 100	> 100	> 100	> 100	> 100	> 100	> 100	> 100	> 100	> 100	> 100	> 100	> 100	> 100	> 100
C/C(=N/NC(=S)Nc1ccc(Cl)cc1)c1cccc(/C(C)=N\NC(=S)Nc2ccc(Cl)cc2)n1	79.5	43.1	40.3	47.5	53.2	10.6	21	27	> 100	9.25	> 100	45	39.7	> 100	29.6	> 100	56.4	8.69	22.4	7.25
Cc1c(C)n(-c2ccccc2)c2nc(S(C)(=O)=O)nc(S(C)(=O)=O)c12	28.9	17.6	2.91	47.4	3.23	27	2.55	3.59	11.7	2.79	9.24	2.95	4.94	23.3	31.1	28.2	37.1	4.94	2.98	2.46
CC1=CCC(C)=Nc2nc3ccccc3n21	> 100	> 100	> 100	> 100	58.9	> 100	> 100	> 100	> 100	> 100	> 100	> 100	> 100	> 100	> 100	> 100	> 100	> 100	> 100	> 100
